2 compounds from US8410137B2, “Thiophene-2-carboxamide derivatives, preparation thereof and therapeutic use thereof” (Sanofi, priority 2008, dated 2013) can be followed below.

Series [1] can be described thus: Measurement (1): quantification of unchanged compound in mouse brain samples by LC-MS/MS, brain/plasma ratio. The series is classed as in vivo. The settings on record: iv at 3 mg/kg, read-out: Ratio: amount present in the brain/amount present in the plasma.
Method: The low penetration of the compounds of formula (I) at the haematoencephalic barrier (HEB) was evaluated in vivo by: • Measurement (1): the quantification of the compounds of formula (I) (unchanged) in mouse brain samples after intravenous (iv, 3 mg/kg) or oral administration, using the LC-MS/MS analytical technique. • The
For series [2], the target named is T1, CB1 receptors present in the brain (Mus musculus, UniProt P47746).
T1 construct: from tissue; host or cells: whole animal (brain CB1 receptors, in vivo)
T1 sequence (P47746 whole entry): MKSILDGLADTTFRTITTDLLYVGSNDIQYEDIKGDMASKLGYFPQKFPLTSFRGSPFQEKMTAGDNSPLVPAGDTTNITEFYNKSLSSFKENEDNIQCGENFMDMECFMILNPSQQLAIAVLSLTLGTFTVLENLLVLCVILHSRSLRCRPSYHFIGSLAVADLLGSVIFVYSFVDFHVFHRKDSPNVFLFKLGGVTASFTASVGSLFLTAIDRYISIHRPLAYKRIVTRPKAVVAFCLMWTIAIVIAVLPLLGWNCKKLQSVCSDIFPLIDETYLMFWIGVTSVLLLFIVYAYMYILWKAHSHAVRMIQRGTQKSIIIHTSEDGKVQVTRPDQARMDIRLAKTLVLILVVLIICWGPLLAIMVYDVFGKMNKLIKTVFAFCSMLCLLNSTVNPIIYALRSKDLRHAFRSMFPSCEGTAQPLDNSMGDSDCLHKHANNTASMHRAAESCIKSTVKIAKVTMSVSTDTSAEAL
Kind of series: Measurement (2): ex vivo [3H]-CP55940 binding assay in mouse brain after intravenous administration. The settings on record: iv at 10 mg/kg, read-out: % of inhibition of the binding of [3H]-CP55940 with regard to the CB1 receptors present in the brain.

For series [3], the target named is T1, CB1 receptors present in the brain. Kind of series: Measurement (3): blocking of the hypothermic effect induced by CP55940. In kind it is in vivo. The settings on record: iv at 10 mg/kg.

As to `NC(=O)C1(c2ccccc2)CCN(C(=O)c2cc(-c3ccc(OCCCO)cc3)c(-c3ccc(Cl)cc3Cl)s2)CC1` [compound 8, 1-({5-(2,4-dichlorophenyl)-4-[4-(3-hydroxypropoxy)phenyl]-2-thienyl}carbonyl)-4-phenylpiperidine-4-carboxamide], the Kp in series [1] was 0.04. Further, the inhibition at 10 mg/kg in series [2] was 13%. Further, in series [3], the “% of reversion of the hypothermic effect of CP55940 with regard to the CB1 receptors present in the brain” value is 17.5%.
Turning to `NC(=O)C1(c2ccccc2)CCN(C(=O)c2cc(-c3ccc(OCCCO)cc3)c(-c3ccccc3Cl)s2)CC1` [compound 45, 1-({5-(2-chlorophenyl)-4-[4-(3-hydroxypropoxy)phenyl]thien-2-yl}carbonyl)-4-phenylpiperidine-4-carboxamide], the inhibition at 10 mg/kg in series [2] was determined as 32%. In series [3], the “% of reversion of the hypothermic effect of CP55940 with regard to the CB1 receptors present in the brain” value was 35.5%.

As a reminder, the inhibition is the percentage by which the read-out fell short of the control.
